Here are results for four molecules from PMC7190830, “Neuromedin U signaling regulates retrieval of learned salt avoidance in a C. elegans gustatory circuit” (Nature Communications, 2020).

“And” between values parts separate entries of the source, which are not always exact repeats. Equal values may be shown once. Read-outs that look alike come from different tables or passages of the source. No end group written: not given here.

Experiment [1] has as its system C. elegans. As to the kind of experiment: Optogenetic silencing of ASG during conditioning or navigation of a 0-50 mM NaCl gradient. Format: in vivo. Conditions: ATR, single replicates. An excerpt:
From left to right n = 51, 59, 43, 44 animals per condition. […] (bottom panel). Scale bar, 20 µm. f Optogenetic silencing of ASG. Individual worms are illuminated with yellow–green light for silencing CAPA-1 neurons during conditioning (acquisition phase) or during the NaCl chemotaxis assay when worms are navigating a linear NaCl gradient (retrieval phase) (see Methods for details). Arch requires supplementation of the cofactor all-trans retinal (ATR) to the worm culture. Transgenic C. elegans not fed ATR-supplemented food serve as a negative control. After conditioning, worms are put in the middle of a chemotaxis plate with a linear NaCl gradient (0–50 mM) and kept in the field-of-view using an automated xy-stage. […] Corresponding biased random walk and klinotaxis indices shown in Supplementary Fig. 10a, b. The time interval for statistical comparison was reduced to 5 min to accommodate the small plate format. g, h From left to right n = 10, 12, 14, 14, 12, 12, 14, 11 animals per condition. Shaded regions on a and g represent S.E.M. while black bars indicate the time interval for calculating the mean gradient position and behavioral indices. Significances determined by two-way ANOVA with Tukey’s HSD post hoc test. n.s. not significant; *p ≤ 0.05; **p ≤ 0.01; ***p ≤ 0.001. Boxplots show medians, 25th and 75th percentiles as box limits. The whiskers extend to the most extreme data points not considered as outlier.
Transgenic worms expressing the outward-directed proton pump Arch in ASG were cultured at 25 °C on culture plates seeded with sufficient OP50 E. coli. One day before the assay, transgenic worms were transferred to OP50 culture plates to which all-trans retinal (ATR, Sigma Aldrich) has been added (300 µM final concentration in fresh OP50 liquid culture). This cofactor is needed for Arch activity, and allows transgenic worms transferred to culture plates without ATR to serve as negative control. A 0 to 50 mM linear gradient was generated in a 55 mm Petri plate. First, 15 mL buffered CTX agar supplemented with 50 mM NaCl was poured in a 55 mm diameter Petri dish elevated to one side. An additional 15.5 mL buffered CTX agar without NaCl was poured on top of the first triangular wedge once it solidified. NaCl was allowed to diffuse at least 24 h prior the assay. Individual worms were washed for 15 min in a small volume of CTX buffer with or without 100 mM NaCl (NaCl-conditioning or mock-conditioning). After conditioning the worm was transferred to the center of the 0 to 50 mM NaCl gradient plate, mounted on a Zeiss AxioObserver Z1 microscope. The animal was then allowed to navigate the plate for 10 min while an automated xy-stage kept it in the field-of-view. […] Each animal’s path was reconstructed based on the recorded low-resolution video-stream and the logged stage positions. The behavior was then segmented and indices reflecting chemotaxis behavior were calculated as described above.
Supplementary Fig. 10. Behavioral effects of silencing CAPA-1 neurons (related to Fig. 7) The inhibitory opsin Arch is expressed in ASG under control of the capa-1 promoter. Individual transgenic worms are illuminated with yellow-green light for ASG silencing while being conditioned, or when they are navigating an agar plates with a 0 to 50 mM NaCl linear gradient (a-b) or no gradient (c-d). Arch requires the cofactor all-trans retinal (ATR) to be supplemented to the worm culture.
Transgenic C. elegans not fed ATR-supplemented food serve as a negative control. See Methods for details. (a) Biased random walk and (b) klinotaxis indices for mock- and NaCl-conditioned animals navigating a 0 to 50 mM NaCl gradient. (a-b) From left to right n = 10, 12, 14, 14, 12, 12, 14, 11 animals per condition. (c) Mean speed of individual worms and (d) the fraction of time in each behavioral state when worms are navigating a plate without NaCl. From left to right n = 7, 7, 7, 7, 7, 7, 5, 7 animals per

Experiment [2] addresses T1, NMUR-1 (Caenorhabditis elegans, UniProt Q18701).
T1 sequence (Q18701 1-400): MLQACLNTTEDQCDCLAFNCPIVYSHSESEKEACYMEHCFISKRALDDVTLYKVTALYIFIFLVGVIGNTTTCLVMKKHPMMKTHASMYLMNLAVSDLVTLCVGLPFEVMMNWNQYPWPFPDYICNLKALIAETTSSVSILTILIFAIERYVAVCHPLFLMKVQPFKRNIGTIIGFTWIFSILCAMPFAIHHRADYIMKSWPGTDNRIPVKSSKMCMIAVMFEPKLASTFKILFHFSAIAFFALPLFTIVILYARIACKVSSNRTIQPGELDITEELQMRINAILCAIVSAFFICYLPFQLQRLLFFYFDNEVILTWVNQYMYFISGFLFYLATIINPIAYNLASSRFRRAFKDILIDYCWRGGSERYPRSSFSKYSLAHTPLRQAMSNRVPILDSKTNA
As to the kind of experiment: Luminescence-based (aequorin) calcium mobilization assay for GPCR activation, NMUR-1 expressed in CHO cells. Conditions: calcium response, aequorin luminescence 496 nm, 30 s, CHO K1 cells stably overexpressing apo-aequorin and human Gα16, transiently transfected nmur-1/pcDNA3.1, 0.1 nM to 100 µM, HPLC-purified peptides, read-out: EC50 (half maximal effective concentration) to activate NMUR-1. Format: cell-based. An excerpt: Cells transfected with an empty pcDNA3.1 vector are used as a control. Error bars show S.E.M. CAPA-1-1 n = 6; CAPA-1-2 n = 6; CAPA-1-3 n = 5 experimental repeats. c The […] encodes a neuropeptide precursor that harbors three predicted peptide sequences (CAPA-1-1, -2, and -3), which are flanked by mono- and dibasic cleaving sites. Black bars indicate the positions of deletions in […]-44 mutant alleles used in this study. d Sequence comparison of C. elegans CAPA-1 neuropeptides and NmU neuropeptides from H. sapiens, D. rerio, and D. melanogaster. Conserved C-terminal features are highlighted in black. Residues with similar physicochemical properties are colored gray.
(Calcium flux is commonly read through the fluorescence of an indicator in the cells.)

Where [3] appears, read: NaCl-conditioned, Time Window Silencing: Navi - Retrieval.
Where [4] appears, read: NaCl-conditioned, Time Window Silencing: Wash - conditioning.
Where [5] appears, read: mock-conditioned, Time Window Silencing: Navi - Retrieval.
Where [6] appears, read: mock-conditioned, Time Window Silencing: Wash - conditioning.
Setting [7] is: CAPA-1-1 n = 6, CAPA-1-3 n = 5 experimental repeats.

Turning to `CC1=C(/C=C/C(C)=C/C=C/C(C)=C/C=O)C(C)(C)CCC1` [ATR], the “Fraction of time in Pause” value in experiment [1] (setting [3]), in experiment [1] (setting [4]), in experiment [1] (setting [5]) and in experiment [1] (setting [6]) was 0 each time. For the same molecule, the “Fraction of time in Run” value is 0.741 and 0.8212 and 0.8921 and 0.8348 and 0.9414 and 0.927 and 0.8623 in experiment [1] (setting [3]); 0.7451 and 0.7688 and 0.9609 and 0.8359 and 0.888 and 0.9702 and 0.8828 in experiment [1] (setting [4]); 0.7564 and 0.7081 and 0.7595 and 0.8171 and 0.6516 and 0.7513 and 0.7264 in experiment [1] (setting [5]); 0.6208 and 0.8756 and 0.9106 and 0.3384 and 0.8016 and 0.8068 and 0.9085 in experiment [1] (setting [6]). Further, the “Fraction of time in Turn” value in experiment [1] (setting [3]) was 0.1151 and 0.03803 and 0.0668 and 0.04464 and 0.02467 and 0.01439; in experiment [1] (setting [4]), 0.09866 and 0.04111 and 0.01747 and 0 and 0.005139 and 0.0298 and 0.06372; in experiment [1] (setting [5]), 0.111 and 0.1007 and 0.1285 and 0.03905 and 0.1665 and 0.03083 and 0.0965; in experiment [1] (setting [6]), 0.05755 and 0.09147 and 0.08941 and 0 and 0.09044 and 0.01439 and 0.0483. Further, the “Fraction of time in Pirouette” value in experiment [1] (setting [4]) was 0.1562 and 0.1901 and 0.02158 and 0.1641 and 0.1069 and 0 and 0.05344; in experiment [1] (NaCl, Time Window Silencing: Navi - Retrieval), 0.1439 and 0.1408 and 0.04111 and 0.1205 and 0.03392 and 0.0483 and 0.1233; in experiment [1] (setting [5]) it was 0.1326 and 0.1912 and 0.112 and 0.1439 and 0.1819 and 0.2179 and 0.1771; in experiment [1] (setting [6]) it was 0.3217 and 0.03289 and 0 and 0.6616 and 0.1079 and 0.1788 and 0.04317.

Turning to AFFYTPRI-NH2 [CAPA-1-3], the EC50 in experiment [2] (setting [7]) came to 142 nM.

As for APHPSSALLVPYPRV-NH2 [CAPA-1-1], in experiment [2] (setting [7]), the EC50 was determined as 6 nM.

For the molecule LYMARV-NH2 [CAPA-1-2], in experiment [2] (CAPA-1-2 n = 6 experimental repeats), the EC50 worked out at 8000 nM.
